In ChEMBL document CHEMBL1132596, “Non-peptide corticotropin-releasing hormone antagonists: syntheses and structure-activity relationships of 2-anilinopyrimidines and -triazines” (J Med Chem, 1999):

Columns and labels:
[1] = target: T1, Corticotropin-releasing factor receptor 1 (Homo sapiens, UniProt P34998); test: Binding affinity for human recombinant corticotropin releasing factor receptor 1
T1 sequence (P34998 whole entry): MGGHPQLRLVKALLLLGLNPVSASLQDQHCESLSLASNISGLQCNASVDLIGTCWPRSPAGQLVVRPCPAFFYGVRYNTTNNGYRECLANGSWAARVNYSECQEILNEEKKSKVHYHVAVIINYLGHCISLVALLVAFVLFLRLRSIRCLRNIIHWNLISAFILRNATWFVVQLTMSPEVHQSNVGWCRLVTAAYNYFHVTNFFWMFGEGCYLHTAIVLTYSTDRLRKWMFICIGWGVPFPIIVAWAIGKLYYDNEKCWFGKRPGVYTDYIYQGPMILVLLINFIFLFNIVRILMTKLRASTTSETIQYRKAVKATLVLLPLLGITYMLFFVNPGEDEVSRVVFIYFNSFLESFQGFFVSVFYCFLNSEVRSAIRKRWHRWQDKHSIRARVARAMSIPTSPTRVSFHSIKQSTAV

[2] = target: T2, Corticotropin-releasing factor receptor 1 (Rattus norvegicus, UniProt P35353); test: Binding affinity was measured on rat Corticotropin releasing factor receptor 1
T2 sequence (P35353 whole entry): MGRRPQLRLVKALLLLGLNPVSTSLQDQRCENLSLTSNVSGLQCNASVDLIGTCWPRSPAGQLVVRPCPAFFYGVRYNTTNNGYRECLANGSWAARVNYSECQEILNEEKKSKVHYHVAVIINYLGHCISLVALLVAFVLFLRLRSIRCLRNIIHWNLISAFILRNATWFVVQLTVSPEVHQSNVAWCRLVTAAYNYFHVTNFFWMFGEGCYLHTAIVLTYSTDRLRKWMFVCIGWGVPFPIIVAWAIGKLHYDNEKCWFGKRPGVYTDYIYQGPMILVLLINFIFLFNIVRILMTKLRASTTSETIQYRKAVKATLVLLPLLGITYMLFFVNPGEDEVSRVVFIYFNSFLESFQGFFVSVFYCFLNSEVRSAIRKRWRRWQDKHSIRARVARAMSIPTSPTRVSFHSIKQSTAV

[3] = The maximum concentration of the compound was measured in dog at dose 5 mg/kg after peroral administration.; assay type: ADME, organism-based, Canis lupus familiaris; set-up: dose 5 mg/kg, route oral; settings: in vivo, po
[4] = The clearance was measured in dog at dose 5 mg/kg after intravenous administration.; assay type: ADME, organism-based, Canis lupus familiaris; set-up: dose 5 mg/kg, route intravenous; settings: in vivo
[5] = The clearance was measured in rat at dose 1 mg/kg after intravenous administration.; assay type: ADME, organism-based; set-up: dose 1 mg/kg, route intravenous; settings: in vivo
[6] = The Tmax is the time taken to reach maximum concentration was measured in rat at dose 1 mg/kg after peroral administration.; assay type: ADME, organism-based; set-up: dose 1 mg/kg, route oral; settings: in vivo, po
[7] = The half life period was measured in rat at dose 12 mg/kg after intravenous administration.; assay type: ADME, organism-based; set-up: dose 12 mg/kg, route intravenous; settings: in vivo
[8] = The clearance was measured in rat at dose 12 mg/kg after intravenous administration.; assay type: ADME, organism-based; set-up: dose 12 mg/kg, route intravenous; settings: in vivo
[9] = The half life period was measured in rat at dose 1 mg/kg after intravenous administration.; assay type: ADME, organism-based; set-up: dose 1 mg/kg, route intravenous; settings: in vivo
[10] = The bioavailability measured as F(%) in dog at dose 5 mg/kg after peroral administration.; assay type: ADME, organism-based, Canis lupus familiaris; settings: in vivo, po
[11] = The maximum concentration of the compound was measured in rat at dose 30 mg/kg after intraperitoneal administration.; assay type: ADME, organism-based; set-up: dose 30 mg/kg, route intraperitoneal; settings: in vivo, ip
[12] = The Tmax is the time taken to reach maximum concentration was measured in dog at dose 5 mg/kg after peroral administration.; assay type: ADME, organism-based, Canis lupus familiaris; set-up: dose 5 mg/kg, route oral; settings: in vivo, po
[13] = The maximum concentration of the compound was measured in rat at dose 1 mg/kg after peroral administration.; assay type: ADME, organism-based; set-up: dose 1 mg/kg, route oral; settings: in vivo, po
[14] = The maximum concentration of the compound was measured in rat at dose 30 mg/kg after peroral administration.; assay type: ADME, organism-based; set-up: dose 30 mg/kg, route oral; settings: in vivo, po
[15] = The Tmax is the time taken to reach maximum concentration was measured in rat at dose 30 mg/kg after peroral administration.; assay type: ADME, organism-based; set-up: dose 30 mg/kg, route oral; settings: in vivo, po
[16] = The Tmax is the time taken to reach maximum concentration was measured in rat at dose 30 mg/kg after intraperitoneal administration.; assay type: ADME, organism-based; set-up: dose 30 mg/kg, route intraperitoneal; settings: in vivo, ip
[17] = The half life period was measured in dog at dose 5 mg/kg after intravenous administration.; assay type: ADME, organism-based, Canis lupus familiaris; set-up: dose 5 mg/kg, route intravenous; settings: in vivo
[18] = Bioavailability in rat (dose 30 mg/kg i.p.); assay type: ADME, organism-based; settings: in vivo, ip
[19] = Tmax is the time taken to reach maximum concentration was measured on rat at dose 30 mg/kg after intraperitoneal administration.; assay type: ADME, organism-based; set-up: dose 30 mg/kg, route intraperitoneal; settings: in vivo, ip
[20] = The maximum concentration of the compound was measured in rat at dose 30 mg/kg after intravenous administration.; assay type: ADME, organism-based; set-up: dose 30 mg/kg, route intravenous; settings: in vivo
[21] = Tmax is the time taken to reach maximum concentration was measured on rat at dose 30 mg/kg after intravenous administration.; assay type: ADME, organism-based; set-up: dose 30 mg/kg, route intravenous; settings: in vivo
[22] = the half life period was measured in rat at dose 30 mg/kg after intravenous administration.; assay type: ADME, organism-based; set-up: dose 30 mg/kg, route intravenous; settings: in vivo
[23] = The bioavailability measured as F(%) on rat at dose 30 mg/kg […].; assay type: ADME, organism-based; settings: in vivo
[24] = The clearance was measured in rat at dose 30 mg/kg after intravenous administration.; assay type: ADME, organism-based; set-up: dose 30 mg/kg, route intravenous; settings: in vivo

Ki [1]	Structure (SMILES)	other results
3 nM	C=CCN(CC=C)c1nc(C)nc(N(CC)c2ccc(N(C)C)cc2Br)n1	–
7 nM	CCCN(CCC)c1nc(C)nc(N(CC)c2ccc(N(C)C)cc2C)n1	–
51 nM	CCN(c1nc(C)cc(C)n1)c1c(Br)cc(C(C)C)cc1SC	–
60 nM	CCN(c1nc(C)cc(C)n1)c1ccc(OC)cc1SC	–
20 nM	CCN(c1nc(C)cc(C)n1)c1ccc(N(C)C)cc1SC	–
6 nM	CCCN(CCC)c1nc(C)nc(N(CC)c2ccc(N(C)C)cc2C(F)(F)F)n1	–
> 1000 nM	CCN(c1nc(C)cc(N2CCNCC2)n1)c1ccc(C(C)C)cc1Br	–
35 nM	CCN(c1nc(C)cc(C)n1)c1ccc(OC)cc1Br	–
4 nM	CCCN(CCC)c1nc(C)nc(N(CC)c2ccc(C(C)C)cc2Br)n1	–
11 nM	CCN(CC)c1cc(C)nc(N(CC)c2ccc(N(C)C)cc2C(F)(F)F)n1	–
> 100 nM	CCCCc1ccc(N(CC)c2nc(C)cc(C)n2)c(Br)c1	–
9 nM	CCCN(CC1CC1)c1cc(C)nc(N(CC)c2ccc(C(C)C)cc2Br)n1	–
19 nM	CCCCN(CC)c1cc(C)nc(N(CC)c2ccc(C(C)C)cc2Br)n1	–
10 nM	CCN(CC)c1cc(C)nc(N(CC)c2c(Cl)cc(OC)cc2OC)n1	–
–	Cc1ccc(N(C)c2nc(C)cc(C)n2)c(Br)c1	Ki [2]: 1100 nM
48 nM	CCN(CC)c1cc(C)nc(N(CC)c2c(Br)cc(OC)cc2OC)n1	–
5 nM	CCCN(c1cc(C)nc(N(CC)c2ccc(C(C)C)cc2Br)n1)C1CC1	–
9 nM	CCN(CC)c1cc(C)nc(N(CC)c2ccc(I)cc2Br)n1	–
90 nM	CCN(c1nc(C)cc(C)n1)c1ccc(C(C)=O)cc1SC	–

Ki [1]	Structure (SMILES)	other results
5 nM	CCCN(CCC#N)c1nc(C)nc(N(CC)c2ccc(N(C)C)cc2C(F)(F)F)n1	–
5 nM	CCCCN(CC)c1nc(C)nc(N(CC)c2ccc(OC(F)(F)F)cc2Br)n1	–
5 nM	CCN(c1nc(C)nc(N(CC2CC2)CC2CC2)n1)c1ccc(N(C)C)cc1C(F)(F)F	–
15 nM	CCN(CC)c1cc(C)nc(N(CC)c2c(Cl)cc(OC)cc2Cl)n1	–
17 nM	CCN(Cc1ccccc1)c1cc(C)nc(N(CC)c2ccc(C(C)C)cc2Br)n1	–
25 nM	CCN(c1nc(C)cc(N(CCOC)CCOC)n1)c1ccc(C(C)C)cc1Br	–
> 1000 nM	CCN(c1nc(C)cc(C)n1)c1ccccc1Br	–
18 nM	CCN(c1nc(C)nc(N(CCOC)CCOC)n1)c1ccc(C(C)C)cc1Br	–
> 100 nM	CCN(c1nc(C)cc(C)n1)c1ccc(C(C)(C)C)cc1Br	–
8 nM	CCCCN(CC)c1cc(C)nc(N(CC)c2ccc(C(C)=O)cc2Br)n1	–
8 nM	CCCCN(CCC#N)c1nc(C)nc(N(CC)c2ccc(N(C)C)cc2C)n1	–
32 nM	CCN(c1nc(C)nc(N2CCOCC2)n1)c1c(Br)cc(OC)cc1OC	Cmax [3]: 730 nM; clearance [4]: 21.7 mL/min/kg; clearance [5]: 66.7 mL/min/kg; Tmax [6]: 0.3 h; half-life [7]: 15.6 h; clearance [8]: 48.3 mL/min/kg; half-life [9]: 7.6 h; bioavailability [10]: 20%; Cmax [11]: 2700 nM; Tmax [12]: 0.5 h; Cmax [13]: 21 nM; Cmax [14]: 753 nM; Tmax [15]: 1.6 h; Tmax [16]: 0.3 h; half-life [17]: 6 h; bioavailability [18]: 47%
> 100 nM	CCc1cc(CC)nc(N(CC)c2ccc(C(C)C)cc2Br)n1	–
6 nM	CCN(CC)c1nc(C)nc(N(CC)c2ccc(N(C)C)cc2Br)n1	–
4 nM	C=CCN(CC=C)c1nc(C)nc(N(CC)c2ccc(C(C)C)cc2Br)n1	–
29 nM	CCN(c1nc(C)cc(N2CCCCC2)n1)c1ccc(C(C)C)cc1Br	–
22 nM	CCN(c1nc(C)cc(N2CCOCC2)n1)c1ccc(C(C)C)cc1Br	–
8 nM	CCCCN(CC#N)c1nc(C)nc(N(CC)c2ccc(N(C)C)cc2C)n1	–
41 nM	CCCCN(Cc1nnnn1C)c1cc(C)nc(N(CC)c2ccc(C(C)C)cc2Br)n1	–

Structure (SMILES)	Ki [1]	other results
CCN(c1nc(C)cc(C)n1)c1c(Br)cc(OC)cc1OC	12 nM	Tmax [19]: 1.2 h; Cmax [20]: 1880 nM; Tmax [21]: 0.25 h; Cmax [11]: 366 nM; half-life [22]: 5.9 h; bioavailability [23]: 26%; bioavailability [18]: 4%; clearance [24]: 88.7 mL/min/kg
